# Reference: US12174198B2, “Methods of characterizing condensate-associated characteristics of compounds and uses thereof” (Dewpoint Therapeutics, Inc., priority 2019, dated 2024)
# What was measured:
# Type in all cases: physicochemical
# FUS-SNAP condensates = molecular target: T1, FUS-SNAP condensates (Homo sapiens, UniProt P35637); assay: Fluorescence imaging of dye partitioning in FUS-SNAP condensates (I-in, I-out); conditions: for Ratio of intensity inside:outside FUS-SNAP Condensates Day 1 / Ratio of intensity inside:outside FUS-SNAP Condensates Day 2 / Ratio of intensity inside:outside FUS-SNAP Condensates Average: I-in:I-out; for Ratio of intensity inside:outside FUS-SNAP Condensates Day 1 / Ratio of intensity inside:outside FUS-SNAP Condensates Day 2 / Ratio of intensity inside:outside FUS-SNAP Condensates Average / Intensity Inside with Dye Average / Intensity Inside with Dye 1 / Intensity Inside with Dye 2 / Intensity Inside with Dye 3 / Intensity Outside with Dye Average / Intensity Outside with Dye 1 / Intensity Outside with Dye 2 / Intensity Outside with Dye 3: 10 μM dye; for Ratio of intensity inside:outside FUS-SNAP Condensates Average: average of two days; for Intensity Inside with Dye Average / Intensity Inside with Dye 1 / Intensity Inside with Dye 2 / Intensity Inside with Dye 3 / Intensity Inside Dye-No Dye: inside FUS-SNAP condensate; for Intensity Inside with Dye Average / Intensity Inside with Dye 1 / Intensity Inside with Dye 2 / Intensity Inside with Dye 3 / Intensity Outside with Dye Average / Intensity Outside with Dye 1 / Intensity Outside with Dye 2 / Intensity Outside with Dye 3: 5 μM protein; for Intensity Inside with Dye Average / Intensity Outside with Dye Average: average of three images; for Intensity Inside with Dye Average / Intensity Inside with Dye 1 / Intensity Inside with Dye 2 / Intensity Inside with Dye 3 / Intensity Inside Dye-No Dye / Intensity Outside with Dye Average / Intensity Outside with Dye 1 / Intensity Outside with Dye 2 / Intensity Outside with Dye 3 / Intensity Outside (Dye-No Dye): one day of experiments; for Intensity Inside with Dye 1 / Intensity Outside with Dye 1: image 1; for Intensity Inside with Dye 2 / Intensity Outside with Dye 2: image 2; for Intensity Inside with Dye 3 / Intensity Outside with Dye 3: image 3; for Intensity Inside Dye-No Dye / Intensity Outside (Dye-No Dye): background corrected; for Intensity Outside with Dye Average / Intensity Outside with Dye 1 / Intensity Outside with Dye 2 / Intensity Outside with Dye 3 / Intensity Outside (Dye-No Dye): outside FUS-SNAP condensate
# T1 sequence (P35637 1-526): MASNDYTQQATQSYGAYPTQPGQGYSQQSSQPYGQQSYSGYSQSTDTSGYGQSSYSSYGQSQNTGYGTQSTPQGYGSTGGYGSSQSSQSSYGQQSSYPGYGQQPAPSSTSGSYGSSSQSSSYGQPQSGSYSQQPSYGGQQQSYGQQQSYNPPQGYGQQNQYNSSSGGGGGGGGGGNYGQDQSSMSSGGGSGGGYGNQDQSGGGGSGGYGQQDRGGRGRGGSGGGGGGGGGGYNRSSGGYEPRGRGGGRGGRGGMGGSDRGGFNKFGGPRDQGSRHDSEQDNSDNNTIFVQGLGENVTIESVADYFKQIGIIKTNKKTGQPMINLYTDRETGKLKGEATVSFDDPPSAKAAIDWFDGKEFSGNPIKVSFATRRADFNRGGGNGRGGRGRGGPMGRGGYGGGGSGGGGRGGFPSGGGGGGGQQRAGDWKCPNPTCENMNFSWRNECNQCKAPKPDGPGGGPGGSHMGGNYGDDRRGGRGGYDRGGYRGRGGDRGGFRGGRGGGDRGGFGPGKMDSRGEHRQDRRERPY
# Procedure: (§1) All dye-stocks were stored as 1 mM solutions in 100% DMSO. The dyes were dissolved in dilution buffer (DB: 14.7 mM Tris, pH 7.25, 1 mM DTT) to yield 11.765 μM dye in 1.1765 DMSO. 17 μl of dye was distributed in a 384 well non-binding plate (Greiner).
# (§2) Either SNAP-tagged FUS protein or tag-free PGL-3 protein was thawed at room temperature for at least 10 min, and the buffer was exchanged to partitioning buffer (PB: 50 mM Tris pH 7.25, 500 mM KCl, 5% Glycerol, and 1 mM DTT). The protein was then diluted to 33.3 μM in PB. 3 μl of protein solution were added to the 384 well plate to initiate phase separation, yielding 20 μl of 5 μM protein and 10 μM dye in 75 mM KCl, 0.75% Glycerol, 20 mM Tris, 1 mM DTT, and 1% DMSO or for no dye control reactions, 20 μl of 5 μM protein in 75 mM KCl, 0.75% Glycerol, 20 mM Tris, 1 mM DTT.
# (§3) A spinning disk confocal microscope was used to acquire images of the samples. A 60×oil high-NA objective lens was used to capture the condensate droplets. The laser power was set to 20% and the exposure times were adjusted to the fluorescence emission intensity specific for each dye. Exposure times ranged from 1-1000 ms. Appropriate filter settings were used, matching the excitation and emission spectra of the respective dyes. Three images per well were taken. The background signal of protein droplets in the absence of dye was recorded for all applied imaging conditions.
# (§4) Fluorescence intensity was measured inside one exemplary target condensate (Intensity inside, I-in) per image and in a region next to the exemplary target condensate (Intensity outside, I-out) by hand using the image analysis software Fiji. An example depicting the regions measured is shown FIG. 2A. Three I-in and three I-out values were measured in total for each dye in each experiment and were averaged. The measured I-in and I-out values for FUS-SNAP condensates on one day of experiments are shown in Table 2 and Table 3, respectively. The measured I-in and I-out values for PGL-3 condensates on one day of experiments are shown in Table 4 and Table 5, respectively. All values were background corrected, based on the background images (no dye controls) taken with the same microscope conditions.
# (§5) The ratios of the average intensity measured in the target condensates and outside of the target condensates were calculated by dividing I-in by I-out, although dividing I-out by I-in could also have been used. The I-in:I-out ratios determined from the two different days of experiments were then averaged. The average I-in:I-out ratios for FUS-SNAP condensates are shown in FIG. 3 and the average I-in:I-out ratios for PGL-3 condensates are shown in FIG. 4. The standard deviation between the two experiments is represented by the error bars in FIG. 3 and FIG. 4.
# PGL-3 condensates = molecular target: T2, PGL-3 condensates (Caenorhabditis elegans, UniProt G5EBV6); assay: Fluorescence imaging of dye partitioning in PGL-3 condensates (I-in, I-out); conditions: for Ratio of intensity inside:outside PGL-3 Condensates Day 1 / Ratio of intensity inside:outside PGL-3 Condensates Day 2 / Ratio of intensity inside:outside PGL-3 Condensates Average: I-in:I-out; for Ratio of intensity inside:outside PGL-3 Condensates Day 1 / Ratio of intensity inside:outside PGL-3 Condensates Day 2 / Ratio of intensity inside:outside PGL-3 Condensates Average / Intensity Inside with Dye Average / Intensity Inside with Dye 1 / Intensity Inside with Dye 2 / Intensity Inside with Dye 3 / Intensity Outside with Dye Average / Intensity Outside with Dye 1 / Intensity Outside with Dye 2 / Intensity Outside with Dye 3: 10 μM dye; for Ratio of intensity inside:outside PGL-3 Condensates Average: average of two days; for Intensity Inside with Dye Average / Intensity Inside with Dye 1 / Intensity Inside with Dye 2 / Intensity Inside with Dye 3 / Intensity Inside Dye-No Dye: inside PGL-3 condensate; for Intensity Inside with Dye Average / Intensity Inside with Dye 1 / Intensity Inside with Dye 2 / Intensity Inside with Dye 3 / Intensity Outside with Dye Average / Intensity Outside with Dye 1 / Intensity Outside with Dye 2 / Intensity Outside with Dye 3: 5 μM protein; for Intensity Inside with Dye Average / Intensity Outside with Dye Average: average of three images; for Intensity Inside with Dye Average / Intensity Inside with Dye 1 / Intensity Inside with Dye 2 / Intensity Inside with Dye 3 / Intensity Inside Dye-No Dye / Intensity Outside with Dye Average / Intensity Outside with Dye 1 / Intensity Outside with Dye 2 / Intensity Outside with Dye 3 / Intensity Outside (Dye-No Dye): one day of experiments; for Intensity Inside with Dye 1 / Intensity Outside with Dye 1: image 1; for Intensity Inside with Dye 2 / Intensity Outside with Dye 2: image 2; for Intensity Inside with Dye 3 / Intensity Outside with Dye 3: image 3; for Intensity Inside Dye-No Dye / Intensity Outside (Dye-No Dye): background corrected; for Intensity Outside with Dye Average / Intensity Outside with Dye 1 / Intensity Outside with Dye 2 / Intensity Outside with Dye 3 / Intensity Outside (Dye-No Dye): outside PGL-3 condensate
# T2 sequence (G5EBV6 1-693): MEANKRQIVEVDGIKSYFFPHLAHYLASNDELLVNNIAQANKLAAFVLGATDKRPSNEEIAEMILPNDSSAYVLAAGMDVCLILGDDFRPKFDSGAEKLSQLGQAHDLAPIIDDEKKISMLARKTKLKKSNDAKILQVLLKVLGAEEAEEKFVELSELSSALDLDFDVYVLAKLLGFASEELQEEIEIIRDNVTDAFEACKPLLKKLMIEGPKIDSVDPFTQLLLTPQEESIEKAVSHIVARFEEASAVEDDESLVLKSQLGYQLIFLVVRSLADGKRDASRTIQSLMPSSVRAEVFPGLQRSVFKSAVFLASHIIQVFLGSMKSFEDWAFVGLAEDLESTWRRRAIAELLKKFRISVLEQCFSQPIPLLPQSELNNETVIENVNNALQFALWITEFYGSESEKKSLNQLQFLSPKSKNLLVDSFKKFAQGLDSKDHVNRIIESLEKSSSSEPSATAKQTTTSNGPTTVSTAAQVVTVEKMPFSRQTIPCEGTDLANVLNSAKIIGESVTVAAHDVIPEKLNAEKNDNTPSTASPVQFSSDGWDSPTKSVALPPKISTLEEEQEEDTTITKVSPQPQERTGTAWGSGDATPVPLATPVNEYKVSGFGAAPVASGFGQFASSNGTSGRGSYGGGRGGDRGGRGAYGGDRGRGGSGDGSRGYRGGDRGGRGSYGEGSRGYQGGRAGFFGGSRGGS
# Procedure: as §1, §2, §3, §4, §5
# [1] = system: FUS-SNAP condensates versus PGL-3 condensates; assay: Condensate preference: ratio of FUS-SNAP I-in:I-out to PGL-3 I-in:I-out; conditions: average FUS-SNAP I-in:I-out divided by average PGL-3 I-in:I-out
# Procedure: as §5
SMILES,Ratio of intensity inside:outside FUS-SNAP Condensates Day 1 (FUS-SNAP condensates),Ratio of intensity inside:outside FUS-SNAP Condensates Day 2 (FUS-SNAP condensates),Ratio of intensity inside:outside FUS-SNAP Condensates Average (FUS-SNAP condensates),Intensity Inside with Dye Average (FUS-SNAP condensates),Intensity Inside with Dye 1 (FUS-SNAP condensates),Intensity Inside with Dye 2 (FUS-SNAP condensates),Intensity Inside with Dye 3 (FUS-SNAP condensates),Intensity Inside Dye-No Dye (FUS-SNAP condensates),Intensity Outside with Dye Average (FUS-SNAP condensates),Intensity Outside with Dye 1 (FUS-SNAP condensates),Intensity Outside with Dye 2 (FUS-SNAP condensates),Intensity Outside with Dye 3 (FUS-SNAP condensates),Intensity Outside (Dye-No Dye) (FUS-SNAP condensates),Ratio of intensity inside:outside PGL-3 Condensates Day 1 (PGL-3 condensates),Ratio of intensity inside:outside PGL-3 Condensates Day 2 (PGL-3 condensates),Ratio of intensity inside:outside PGL-3 Condensates Average (PGL-3 condensates),Intensity Inside with Dye Average (PGL-3 condensates),Intensity Inside with Dye 1 (PGL-3 condensates),Intensity Inside with Dye 2 (PGL-3 condensates),Intensity Inside with Dye 3 (PGL-3 condensates),further results
"N=C(N)c1ccc(-c2cc3ccc(C(=N)N)cc3[nH]2)cc1 [Dye 1, DAPI]",4.6,3.3,4.0,622.4,638.5,599.9,628.8,502.4,228.6,233.9,233.3,218.7,108.6,1.9,3.3,2.6,212.6,211.3,211.0,215.7,Intensity Inside Dye-No Dye (PGL-3 condensates): 91.9; Intensity Outside with Dye Average (PGL-3 condensates): 168.8; Intensity Outside with Dye 1 (PGL-3 condensates): 173.1; Intensity Outside with Dye 2 (PGL-3 condensates): 168.4; Intensity Outside with Dye 3 (PGL-3 condensates): 164.9; Intensity Outside (Dye-No Dye) (PGL-3 condensates): 48.4; Ratio of FUS-SNAP:PGL-3 [1]: 1.5
"O=c1cc(C(F)(F)F)c2ccc(O)cc2o1 [Dye 2, 7-Hydroxy-4-(trifluoromethyl)-coumarin]",1.4,1.2,1.3,280.9,278.2,278.1,286.5,160.9,232.0,235.7,228.5,232.0,112.0,1.0,1.1,1.1,269.8,273.9,267.0,268.3,Intensity Inside Dye-No Dye (PGL-3 condensates): 149.0; Intensity Outside with Dye Average (PGL-3 condensates): 262.4; Intensity Outside with Dye 1 (PGL-3 condensates): 263.1; Intensity Outside with Dye 2 (PGL-3 condensates): 258.0; Intensity Outside with Dye 3 (PGL-3 condensates): 266.0; Intensity Outside (Dye-No Dye) (PGL-3 condensates): 141.9; Ratio of FUS-SNAP:PGL-3 [1]: 1.2
"O=C(O)c1cc2cc3c4c(c2oc1=O)CCCN4CCC3 [Dye 3, Coumarin 343]",2.5,2.8,2.7,3572.7,3451.6,3462.2,3804.4,3452.8,1498.4,1486.5,1529.0,1479.6,1378.3,1.5,1.1,1.3,2098.0,2228.4,2006.3,2059.4,Intensity Inside Dye-No Dye (PGL-3 condensates): 1977.3; Intensity Outside with Dye Average (PGL-3 condensates): 1447.1; Intensity Outside with Dye 1 (PGL-3 condensates): 1472.5; Intensity Outside with Dye 2 (PGL-3 condensates): 1407.6; Intensity Outside with Dye 3 (PGL-3 condensates): 1461.1; Intensity Outside (Dye-No Dye) (PGL-3 condensates): 1326.6; Ratio of FUS-SNAP:PGL-3 [1]: 2.0
"CC(=O)c1cc2cc3c4c(c2oc1=O)CCCN4CCC3 [Dye 4, Coumarin 334]",2.1,3.0,2.6,10851.1,10755.9,10738.6,11058.9,10353.6,5030.3,4894.0,5118.6,5078.2,4890.2,1.4,1.3,1.3,204.8,212.2,205.0,197.2,Intensity Inside Dye-No Dye (PGL-3 condensates): 84.0; Intensity Outside with Dye Average (PGL-3 condensates): 179.0; Intensity Outside with Dye 1 (PGL-3 condensates): 178.0; Intensity Outside with Dye 2 (PGL-3 condensates): 179.6; Intensity Outside with Dye 3 (PGL-3 condensates): 179.5; Intensity Outside (Dye-No Dye) (PGL-3 condensates): 58.6; Ratio of FUS-SNAP:PGL-3 [1]: 1.9
